From patent publication US7691889B2, “Antimycobacterial compounds” (Lupin Limited, priority 2002, dated 2010)
≈ marks a conversion by molar mass, not a printed value.

What was measured:
M. tuberculosis 27294 = assay: In vitro agar dilution assay (MIC), reference strain; assay type: cell-based, Mycobacterium tuberculosis; settings: for MIC against M. tuberculosis 27294: Middlebrook 7H10
[1] = tested on: M. tuberculosis clinical isolates, sensitive; assay: microbe, parasite or virus in culture; assay type: cell-based, Mycobacterium tuberculosis; settings: Table I; agar dilution

## O=C(CCC(=O)c1ccccc1)NC[C@H]1CN(c2ccc(N3CCOCC3)c(F)c2)C(=O)O1 [Compound 1, (S)-N-[[3-(3-fluoro-4-morpholinylphenyl)-2-oxo-5-oxazolidinyl]methyl]-4-oxo-4-phenylbutanamide]
M. tuberculosis 27294
  MIC against M. tuberculosis 27294: 16 µg/mL (≈ 35.1 µM)
[1]
  MIC against Clinical isolates Sensitive: 4 to 16 µg/mL

## Cc1ccc(C(=O)CCC(=O)NC[C@H]2CN(c3ccc(N4CCOCC4)c(F)c3)C(=O)O2)cc1 [Compound 2, (S)-N-[[3-(3-fluoro-4-morpholinylphenyl)-2-oxo-5-oxazolidinyl]methyl]-4-(4-methylphenyl)-4-oxobutanamide]
M. tuberculosis 27294
  MIC against M. tuberculosis 27294: 8 µg/mL (≈ 17 µM)
[1]
  MIC against Clinical isolates Sensitive: 8 µg/mL (≈ 17 µM)

## O=C(CCC(=O)c1ccccc1)NC[C@H]1CN(c2ccc(N3CCSCC3)c(F)c2)C(=O)O1 [Compound 8, (S)-N-[[3-(3-fluoro-4-thiomorpholinylphenyl)-2-oxo-5-oxazolidinyl]methyl]-4-oxo-4-phenylbutanamide]
M. tuberculosis 27294
  MIC against M. tuberculosis 27294: 2 µg/mL (≈ 4.24 µM)
[1]
  MIC against Clinical isolates Sensitive: .5 to 2 µg/mL

## COc1ccc(C(=O)CCC(=O)NC[C@H]2CN(c3ccc(N4CCOCC4)c(F)c3)C(=O)O2)cc1 [Compound 13, (S)-N-[[3-(3-fluoro-4-morpholinylphenyl)-2-oxo-5-oxazolidinyl]methyl]-4-(4-methoxyphenyl)-4-oxobutanamide]
M. tuberculosis 27294
  MIC against M. tuberculosis 27294: 2 µg/mL (≈ 4.12 µM)
[1]
  MIC against Clinical isolates Sensitive: 2 µg/mL (≈ 4.12 µM)

## O=C(CCC(=O)c1ccc(Cl)cc1)NC[C@H]1CN(c2ccc(N3CCOCC3)c(F)c2)C(=O)O1 [Compound 14, (S)-N-[[3-(3-fluoro-4-morpholinylphenyl)-2-oxo-5-oxazolidinyl]methyl]-4-(4-chlorophenyl)-4-oxobutanamide]
M. tuberculosis 27294
  MIC against M. tuberculosis 27294: 0.25 µg/mL (≈ 0.51 µM)
[1]
  MIC against Clinical isolates Sensitive: 0.25 to 0.5 µg/mL

## Cc1ccc(C(=S)CCC(=O)NC[C@H]2CN(c3ccc(N4CCOCC4)c(F)c3)C(=O)O2)cc1 [Compound 15, (S)-N-[[3-(3-fluoro-4-morpholinylphenyl)-2-oxo-5-oxazolidinyl]methyl]-4-(4-methylphenyl)-4-thiooxobutanamide]
M. tuberculosis 27294
  MIC against M. tuberculosis 27294: >16 µg/mL
[1]
  MIC against Clinical isolates Sensitive: >16 µg/mL

## O=C(CCC(=O)c1ccc2ccccc2c1)NC[C@H]1CN(c2ccc(N3CCOCC3)c(F)c2)C(=O)O1 [Compound 16, (S)-N-[[3-(3-fluoro-4-morpholinylphenyl)-2-oxo-5-oxazolidinyl]methyl]-4-(4-2-naphthyl)-4-oxobutanamide]
M. tuberculosis 27294
  MIC against M. tuberculosis 27294: 0.5 µg/mL (≈ 0.989 µM)
[1]
  MIC against Clinical isolates Sensitive: 0.5 µg/mL (≈ 0.989 µM)

## CC(C)Cc1ccc(C(=O)CCC(=O)NC[C@H]2CN(c3ccc(N4CCOCC4)c(F)c3)C(=O)O2)cc1 [Compound 17]
M. tuberculosis 27294
  MIC against M. tuberculosis 27294: 0.5 µg/mL (≈ 0.977 µM)
[1]
  MIC against Clinical isolates Sensitive: 1.0 µg/mL (≈ 1.95 µM)

## O=C(CCC(=O)c1ccc(F)cc1F)NC[C@H]1CN(c2ccc(N3CCOCC3)c(F)c2)C(=O)O1 [Compound 18, (S)-N-[[3-(3-fluoro-4-morpholinylphenyl)-2-oxo-5-oxazolidinyl]methyl]-4-(2,4-difluorophenyl)-4-oxobutanamide]
M. tuberculosis 27294
  MIC against M. tuberculosis 27294: 4− μg/ml
[1]
  MIC against Clinical isolates Sensitive: 1 to 4 µg/mL

## O=C(CCC(=O)c1ccc(F)cc1F)NC[C@H]1CN(c2ccc(-c3nc[nH]n3)c(F)c2)C(=O)O1 [Compound 51, (S)-N-[[3-(3-fluoro-4-(1,2,4-triazolyl)phenyl)-2-oxo-5-oxazolidinyl]methyl]-4-(2,4-difluorophenyl)-4-oxobutanamide]
M. tuberculosis 27294; Mycobacterium tuberculosis, 27294, Middlebrook 7H10, read-out: MIC against M. tuberculosis 27294
  MIC: 8 µg/mL (≈ 16.9 µM)

## O=C(CCC(=O)c1ccc2ccccc2c1)NC[C@H]1CN(c2ccc(N3CCCC3)c(F)c2)C(=O)O1 [Compound 57, (S)-N-[[3-(3-fluoro-4-pyrrolidinylphenyl)-2-oxo-5-oxazolidinyl]methyl]-4-(2-naphthyl)-4-oxobutanamide]
M. tuberculosis 27294
  MIC against M. tuberculosis 27294: 16 µg/mL (≈ 32.7 µM)

## CCCc1ccc(C(=O)CCC(=O)NC[C@H]2CN(c3ccc(N4CCCC4)c(F)c3)C(=O)O2)c(C)c1 [Compound 58, (S)-N-[[3-(3-fluoro-4-pyrrolidinylphenyl)-2-oxo-5-oxazolidinyl]methyl]-4-(2′-methyl-4-propylphenyl)-4-oxobutanamide]
M. tuberculosis 27294
  MIC against M. tuberculosis 27294: 8 µg/mL (≈ 16.1 µM)
